Experimental data: the supplement of paper PMC10307832

Columns and labels:
Test in all cases: relative viability (nuclei count vs DMSO), 5 days (fraction); higher = more cells survive
[1] = compound: Cc1cc(Nc2cc(N3CCN(C)CC3)nc(Sc3ccc(NC(=O)C4CC4)cc3)n2)n[nH]1 [Tozasertib] + CC(=O)c1c(C)c2cnc(Nc3ccc(N4CCNCC4)cn3)nc2n(C2CCCC2)c1=O [Palbociclib] (partner 0.5 µM)
Procedure, shortened: (§1)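 Cells from lung cancer lines were seeded into 1536-well plates and, one day later, dosed by pin tool. Treatments were either a single drug or a fixed dose of an anchor drug with five library-drug doses (not always all listed) in √10 steps. After 5 days, nuclei were stained in a one-step fixation (final 0.05% Triton X-100, 1% formaldehyde, 1 ug/ml Hoechst) and counted on 4× images, and relative viability is the treated-to-vehicle nuclei ratio, as the median of duplicate plates.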

[2] = compound: Cc1cc(Nc2cc(N3CCN(C)CC3)nc(Sc3ccc(NC(=O)C4CC4)cc3)n2)n[nH]1 [Tozasertib] + COc1cc2c(Oc3ccc(NC(=O)C4(C(=O)Nc5ccc(F)cc5)CC4)cc3F)ccnc2cc1OCCCN1CCOCC1 [Foretinib] (partner 0.25 µM)
Procedure, shortened: as §1

[3] = compound: Cc1cc(Nc2cc(N3CCN(C)CC3)nc(Sc3ccc(NC(=O)C4CC4)cc3)n2)n[nH]1 [Tozasertib] + COc1cccc2cc(-c3nc([C@H]4CC[C@H](C(=O)O)CC4)n4ncnc(N)c34)[nH]c12 [OSI-027] (partner 0.5 µM)
Procedure, shortened: as §1

[4] = compound: Cc1cc(Nc2cc(N3CCN(C)CC3)nc(Sc3ccc(NC(=O)C4CC4)cc3)n2)n[nH]1 [Tozasertib] + CS(=O)(=O)CCNCc1ccc(-c2ccc3ncnc(Nc4ccc(OCc5cccc(F)c5)c(Cl)c4)c3c2)o1 [Lapatinib] (partner 2 µM)
Procedure, shortened: as §1

[5] = compound: Cc1cc(Nc2cc(N3CCN(C)CC3)nc(Sc3ccc(NC(=O)C4CC4)cc3)n2)n[nH]1 [Tozasertib] + NC(=O)Nc1cc(-c2cccc(F)c2)sc1C(=O)N[C@H]1CCCNC1 [AZD7762] (partner 0.2 µM)
Procedure, shortened: as §1

Cell Line	relative viability ([1]; first compound 0.004 µM)	relative viability ([1]; first compound 0.01265 µM)	relative viability ([1]; first compound 0.04 µM)	relative viability ([1]; first compound 0.1265 µM)	relative viability ([2]; first compound 0.004 µM)	relative viability ([2]; first compound 0.01265 µM)	relative viability ([2]; first compound 0.04 µM)	relative viability ([2]; first compound 0.1265 µM)	relative viability ([3]; first compound 0.004 µM)	relative viability ([3]; first compound 0.01265 µM)	relative viability ([3]; first compound 0.04 µM)	relative viability ([3]; first compound 0.1265 µM)	relative viability ([4]; first compound 0.004 µM)	relative viability ([4]; first compound 0.01265 µM)	relative viability ([4]; first compound 0.04 µM)	relative viability ([4]; first compound 0.1265 µM)	relative viability ([5]; first compound 0.004 µM)	relative viability ([5]; first compound 0.01265 µM)	relative viability ([5]; first compound 0.04 µM)	relative viability ([5]; first compound 0.1265 µM)
201T	0.355	0.362	0.364	0.224	1.09	1.04	1.28	1.09	0.76	0.781	0.839	0.621	1	0.981	1.05	0.884	0.549	0.63	0.581	0.75
LC-2-ad	0.503	0.529	0.442	0.477	0.812	–	1.04	0.609	0.941	0.692	0.734	0.374	1.01	0.884	0.97	0.509	0.868	0.763	0.915	0.731
NCI-H1755	0.456	0.461	0.442	0.442	0.984	0.455	0.893	0.743	0.661	0.636	0.725	0.601	–	1.01	–	0.882	0.46	0.432	0.406	0.445
NCI-H2342	0.491	0.511	0.476	0.531	0.949	0.997	1.02	0.908	0.654	0.525	0.657	0.582	–	–	–	–	0.578	0.532	0.514	0.398
BEN	0.455	0.475	0.481	0.432	1.02	0.463	0.678	0.493	0.333	0.335	0.309	0.284	0.73	0.886	0.696	0.577	0.761	0.678	–	0.532
EKVX	–	0.367	0.418	0.412	0.74	0.76	0.838	0.786	0.692	0.671	0.734	–	0.189	0.167	0.227	0.185	0.703	0.584	0.572	0.236
SW 1573	0.455	0.355	0.284	0.151	0.839	0.905	1.02	0.8	0.619	0.526	0.512	0.204	1.03	1.23	1.21	1.05	–	–	–	–
NCI-H441	0.222	0.186	0.213	0.203	1.05	0.914	0.895	0.887	0.57	0.647	0.568	0.6	–	–	–	–	1.61	0.989	1.17	1.08
NCI-H1437	0.327	0.267	0.316	0.19	1.22	1.25	1.2	1.19	1	0.794	0.874	0.606	0.782	0.74	0.759	0.329	1.14	1.16	1.01	1.14
